In publication PMC9095466 (Nature, 2022):
Where “and” joins values, the source holds several entries; their conditions need not be identical. Equal values may be shown once. Read-outs that look alike come from different tables or passages of the source.

How the values were obtained:
[1] = target: T1, human cathepsin L (Homo sapiens, UniProt P07711); assay: Protease selectivity, Ki on protease; assay type: biochemical; settings: single experiments N1-N4; Figure 1D; read-out: Individual Ki, Cathepsin L
T1 construct: purchased Bio-Techne
T1 sequence (P07711 114-333): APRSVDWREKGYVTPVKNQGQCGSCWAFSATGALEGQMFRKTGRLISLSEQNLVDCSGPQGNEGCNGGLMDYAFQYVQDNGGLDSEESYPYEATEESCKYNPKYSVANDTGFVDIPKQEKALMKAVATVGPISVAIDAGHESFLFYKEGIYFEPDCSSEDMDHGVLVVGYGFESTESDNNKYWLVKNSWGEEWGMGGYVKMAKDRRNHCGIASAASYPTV

[2] = target: T2, Recombinant human DESC1 (Homo sapiens, UniProt Q9UL52); assay: Protease selectivity, Ki on recombinant protease; assay type: biochemical; settings: single experiments N1-N3; Figure 1D; read-out: Individual Ki, Desc1
T2 construct: made in house
T2 sequence (Q9UL52 1-423): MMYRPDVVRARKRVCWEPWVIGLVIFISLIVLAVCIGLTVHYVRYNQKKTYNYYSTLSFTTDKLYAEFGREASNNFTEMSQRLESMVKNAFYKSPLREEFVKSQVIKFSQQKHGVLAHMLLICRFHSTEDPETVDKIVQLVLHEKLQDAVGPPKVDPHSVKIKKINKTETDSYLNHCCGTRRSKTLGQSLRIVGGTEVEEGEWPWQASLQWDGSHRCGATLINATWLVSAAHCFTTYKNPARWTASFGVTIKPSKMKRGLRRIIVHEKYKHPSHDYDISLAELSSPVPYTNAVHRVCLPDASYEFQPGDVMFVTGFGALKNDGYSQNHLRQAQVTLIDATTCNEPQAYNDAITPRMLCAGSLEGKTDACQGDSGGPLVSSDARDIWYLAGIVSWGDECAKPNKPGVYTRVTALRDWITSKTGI

[3] = target: T3, human thrombin (Homo sapiens, UniProt P00734); assay: Protease selectivity, Ki on protease; assay type: biochemical; settings: single experiments N1-N3; Figure 1D; read-out: Individual Ki, Thrombin
T3 construct: purchased MilliporeSigma

[4] = target: T4, Recombinant human matriptase (Homo sapiens, UniProt Q9Y5Y6); assay: Protease selectivity, Ki on recombinant protease; assay type: biochemical; settings: single experiments N1-N3; Figure 1D; read-out: Individual Ki, Matriptase
T4 construct: made in house
T4 sequence (Q9Y5Y6 1-855): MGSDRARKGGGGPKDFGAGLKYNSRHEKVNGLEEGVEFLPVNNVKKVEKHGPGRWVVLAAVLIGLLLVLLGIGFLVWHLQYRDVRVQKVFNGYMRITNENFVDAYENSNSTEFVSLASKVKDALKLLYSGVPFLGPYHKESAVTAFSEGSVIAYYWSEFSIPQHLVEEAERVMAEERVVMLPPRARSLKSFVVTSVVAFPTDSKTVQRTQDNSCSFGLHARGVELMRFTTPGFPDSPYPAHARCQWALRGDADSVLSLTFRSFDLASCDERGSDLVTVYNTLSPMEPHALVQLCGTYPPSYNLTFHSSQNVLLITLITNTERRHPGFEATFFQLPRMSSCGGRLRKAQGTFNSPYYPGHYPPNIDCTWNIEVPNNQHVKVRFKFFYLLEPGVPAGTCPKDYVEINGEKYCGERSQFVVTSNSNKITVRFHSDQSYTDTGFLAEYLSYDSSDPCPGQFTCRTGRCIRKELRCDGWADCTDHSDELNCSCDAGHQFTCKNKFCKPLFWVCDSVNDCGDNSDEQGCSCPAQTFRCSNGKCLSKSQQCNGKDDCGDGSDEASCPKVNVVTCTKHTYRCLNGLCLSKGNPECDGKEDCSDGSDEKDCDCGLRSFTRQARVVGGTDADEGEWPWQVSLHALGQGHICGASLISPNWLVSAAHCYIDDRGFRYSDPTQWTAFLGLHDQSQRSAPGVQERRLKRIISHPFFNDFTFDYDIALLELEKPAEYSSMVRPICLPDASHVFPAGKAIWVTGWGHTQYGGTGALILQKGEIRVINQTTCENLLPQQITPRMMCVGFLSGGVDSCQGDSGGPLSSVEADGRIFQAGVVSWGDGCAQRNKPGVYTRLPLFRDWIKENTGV

[5] = target: T5, Recombinant human furin (Homo sapiens, UniProt P09958); assay: Protease selectivity, Ki on recombinant protease; assay type: biochemical; settings: single experiments N1-N3; Figure 1D; read-out: Individual Ki, Furin
T5 construct: purchased Bio-Techne
T5 sequence (P09958 108-794): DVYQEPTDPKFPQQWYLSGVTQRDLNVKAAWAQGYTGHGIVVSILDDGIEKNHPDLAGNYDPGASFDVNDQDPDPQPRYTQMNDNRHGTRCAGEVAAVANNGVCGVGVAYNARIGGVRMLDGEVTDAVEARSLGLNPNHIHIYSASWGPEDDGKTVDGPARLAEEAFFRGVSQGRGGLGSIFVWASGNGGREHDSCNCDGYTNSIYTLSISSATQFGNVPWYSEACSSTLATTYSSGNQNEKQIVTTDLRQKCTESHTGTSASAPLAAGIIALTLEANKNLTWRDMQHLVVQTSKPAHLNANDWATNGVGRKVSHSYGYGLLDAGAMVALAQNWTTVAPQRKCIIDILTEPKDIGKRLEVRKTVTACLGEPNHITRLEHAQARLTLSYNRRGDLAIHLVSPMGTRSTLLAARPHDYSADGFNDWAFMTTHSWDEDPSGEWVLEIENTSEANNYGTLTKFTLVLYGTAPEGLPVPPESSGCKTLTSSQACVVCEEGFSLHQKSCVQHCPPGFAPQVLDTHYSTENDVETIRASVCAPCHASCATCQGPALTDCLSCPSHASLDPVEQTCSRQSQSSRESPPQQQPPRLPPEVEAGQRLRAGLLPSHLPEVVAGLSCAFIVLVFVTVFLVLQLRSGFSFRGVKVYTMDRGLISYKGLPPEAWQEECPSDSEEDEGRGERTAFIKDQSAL

[6] = target: T6, Recombinant human hepsin (Homo sapiens, UniProt P05981); assay: Protease selectivity, Ki on recombinant protease; assay type: biochemical; settings: single experiments N1-N3; Figure 1D; read-out: Individual Ki, Hepsin
T6 construct: made in house
T6 sequence (P05981 whole entry): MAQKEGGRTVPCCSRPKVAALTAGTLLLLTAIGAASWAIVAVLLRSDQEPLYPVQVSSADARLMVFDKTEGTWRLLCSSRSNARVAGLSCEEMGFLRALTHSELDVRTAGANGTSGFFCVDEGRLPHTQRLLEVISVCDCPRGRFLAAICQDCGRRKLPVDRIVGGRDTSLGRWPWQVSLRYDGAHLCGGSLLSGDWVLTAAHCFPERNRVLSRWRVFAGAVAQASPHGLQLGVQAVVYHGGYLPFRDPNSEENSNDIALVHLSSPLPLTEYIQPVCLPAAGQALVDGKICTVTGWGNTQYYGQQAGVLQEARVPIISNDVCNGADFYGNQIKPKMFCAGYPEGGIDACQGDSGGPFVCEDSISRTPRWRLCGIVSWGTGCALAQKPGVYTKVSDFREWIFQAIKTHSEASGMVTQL

[7] = tested on: SARS-CoV-2 (VIDO); assay type: cell-based; parameters: plaque assay titre, Figure 2c: unit not given beside the values; settings: for reduction of viral titre (plaque assay): supernatant of infected Calu-3 cells, vs DMSO-treated infected control; for plaque assay titre, Figure 2c: replicate columns
[8] = tested on: SARS-CoV-2 (VIDO); assay: microbe, parasite or virus in culture; assay type: cell-based; settings: Severe acute respiratory syndrome coronavirus 2; colonoids pretreated 3 h with 100 nM, infected 3 days, vs DMSO-treated; read-out: inhibition of SARS-CoV-2 infection in colonoids
[9] = tested on: SARS-CoV-2 (USA-WA1/2020, lineage A); assay: K18-hACE2 mouse model of SARS-CoV-2, H&E histopathology of lung and brain; settings: 8-day regimen
Procedure: For histological examination, mouse lungs and brains were collected directly after euthanasia and placed in 10% formalin for more than 72 h, after which tissues were embedded in paraffin. Tissue sections (4 μm) were analysed after staining with H&E and scored blinded by an anatomic pathologist. For lung, scores were applied based on the percentage of each tissue type (alveolus, vessels and so on) affected using the following criteria: (0) normal; (1) less than 10% affected; (2) 10–25% affected; (3) 26–50% affected; and (4) more than 50% affected[64]. Assessment of lung pathology in K18-hACE2 mice infected with the SARS-CoV-2 B.1.617.2 (Delta) VOC after single-dose treatment was performed on IHC sections counterstained with haematoxylin. For brains, histological scoring was assessed for perivascular inflammation using the most severely affected vessel and the following criteria: (0) no perivascular inflammation; (1) incomplete cuff one cell layer thick; (2) complete cuff one cell layer thick; (3) complete cuff two to three cells thick; and (4) complete cuff four or more cells thick. Necrotic cells in the neuroparenchyma were assessed per 0.237 mm^2 field using the most severely affected area and the following criteria: (0) no necrotic cells; (1) rare individual necrotic cells; (2) fewer than 10 necrotic cells; (3) 11 to 25 necrotic cells; (4) 26 to 50 necrotic cells; and (5) greater than 50 cells.

[10] = target: human TMPRSS2 (Homo sapiens, UniProt O15393); assay: cell-based; settings: cells treated with up to 10 μM
human TMPRSS2, sequence (O15393 whole entry): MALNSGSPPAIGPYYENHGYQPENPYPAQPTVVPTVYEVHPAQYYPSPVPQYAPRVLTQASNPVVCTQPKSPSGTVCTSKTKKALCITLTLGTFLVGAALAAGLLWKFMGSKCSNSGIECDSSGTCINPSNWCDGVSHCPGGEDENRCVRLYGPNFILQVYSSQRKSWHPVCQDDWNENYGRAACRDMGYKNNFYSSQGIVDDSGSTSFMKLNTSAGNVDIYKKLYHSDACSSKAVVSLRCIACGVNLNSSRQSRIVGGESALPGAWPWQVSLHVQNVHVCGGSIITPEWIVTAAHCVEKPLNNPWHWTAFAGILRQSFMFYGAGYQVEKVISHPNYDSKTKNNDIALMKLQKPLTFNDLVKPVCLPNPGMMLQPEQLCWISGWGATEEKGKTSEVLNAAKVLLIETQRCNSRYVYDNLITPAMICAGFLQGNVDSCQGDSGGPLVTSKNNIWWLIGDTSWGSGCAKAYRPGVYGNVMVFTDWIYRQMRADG

[11] = tested on: SARS-CoV-2 (USA-WA1/2020, lineage A); assay type: in vivo, K18-hACE2 mice; settings: Figure S8 C, tissue plaque assay, individual animals
[12] = tested on: SARS-CoV-2 lineage B strain (VIDO); assay: microbe, parasite or virus in culture; assay type: cell-based
[13] = tested on: SARS-CoV-2 (USA-WA1/2020, lineage A); parameters: species or system K18-hACE2 mice; settings: mouse, in vivo
[14] = tested on: SARS-CoV-2 (USA-WA1/2020, lineage A); assay: K18-hACE2 mouse model of SARS-CoV-2, IHC of nucleocapsid with digital image analysis; assay type: in vivo, K18-hACE2 mice; settings: individual mice, 8-day regimen, tissue at death or end-point
Procedure: To detect viral antigen, sections were labelled with anti-SARS-CoV-2 nucleocapsid protein rabbit IgG monoclonal antibody (GeneTex; GTX635679) at a 1:5,000 dilution and processed using a Leica Bond Max automated IHC stainer. Leica Bond Polymer Refine Detection (Leica; DS9800) with DAB was used as the chromogen. Image acquisition was performed using a Roche Ventana DP200 slide scanner. Digital image analysis was performed using QuPath software[65],[66] v.0.2.3. Tissues were annotated to include all available lung tissue or all brain tissue excluding cerebellum, as cerebellar tissue was not available for all mice. Following annotation, automated detection was performed using automated SLIC superpixel segmentation with a DAB mean detection threshold of 0.18892.

[15] = tested on: Vero E6 cells; assay: Cytotoxicity assay (Cell Titer-Glo 2.0) in Vero E6 cells; assay type: cell-based; settings: Triton X-100 0.01% toxicity control, 24 h; single experiments N1-N4
Procedure: Calu-3 and Vero E6 cells (2500 or 10,000 cells for samples, 80–20,000 cells for standard curve) were seeded in 96-well plates. Following a 24-h incubation at 37 °C, 5% CO2, cells were washed with D-PBS and compounds added (10 µM) for an additional 24-h incubation. Cellular viability was assessed using Cell Titer-Glo 2.0 Cell Viability Assay (Promega) according to the manufacturer’s instructions. The number of viable cells was extrapolated using the standard curve. Cellular viability in Vero E6 cells was expressed relative (%) to vehicle-treated cells. Data are from four independent experiments (mean ± s.d.).

[16] = individual mice, tissue at death or end-point

N=C(N)NCCCCC(=O)N[C@@H](CCC(N)=O)C(=O)N[C@@H](Cc1ccccc1)C(=O)N[C@@H](CCCNC(=N)N)C(=O)c1nc2ccccc2s1 [Compound N-00130]
Ki [1]: > 10000 nM | Ki [2]: 16.4 nM and 37.9 nM and 30.4 nM | Ki [3]: 7560 nM and > 10000 nM and 7140 nM | Ki [4]: 0.154 nM and 0.0954 nM and 0.153 nM | Ki [5]: > 10000 nM | Ki [6]: 0.221 nM and 0.323 nM and 0.606 nM

CS(=O)(=O)NC(CCC(N)=O)C(=O)NC(Cc1ccccc1)C(=O)NC(CCCNC(=N)N)C(O)c1nc2ccccc2s1 (stereo not drawn) [N-0385(OH), Ms-QFR-Kbt(OH)]
reduction of viral titre (plaque assay) ([7]; 40 nM): did not induce reduction | plaque assay titre, Figure 2c ([7]; 40 nM): 240000 and 1067000 and 627000 and 715000 and 1050000 and 440000 and 310000 (2×) and 190000 and 70000 and 400000 and 350000 and 264000 and 242000 | reduction of viral titre (plaque assay) ([7]; 200 nM): did not induce reduction | plaque assay titre, Figure 2c ([7]; 200 nM): 200000 and 150000 (2×) and 30000 and 500000 (4×) and 780000 and 594000 and 286000 and 190000 and 950000 | inhibition at 0.1 µM [8]: < 20% | Brain lesions (H&E) ([9]; N-0385: surviving mice, day 14): reduced | Perivascular infiltrates in CNS score ([9]; individual mice, most severely affected vessel): 0 and 2 and 1 | Alveolar cells score [9, 16]: 0 and 1 ((1) <10% affected) and 2 ((2) 10–25% affected) | Alveolar edema score [9, 16]: 0 and 1 ((1) <10% affected) and 2 ((2) 10–25% affected) | Alveolar fibrin score [9, 16]: 0 and 1 ((1) <10% affected) and 2 ((2) 10–25% affected) | Fibrosis score [9, 16]: 0 | Interstitial infiltrates in lung score [9, 16]: 0 and 1 ((1) <10% affected) and 3 ((3) 26–50% affected) | Lymphoid hyperplasia score [9, 16]: 0 | Perivascular infiltrate in lung score [9, 16]: 1 ((1) <10% affected) and 3 ((3) 26–50% affected) and 0 | Type II pneumocyte hyperplasia score [9, 16]: 0 and 1 ((1) <10% affected) and 3 ((3) 26–50% affected) | reduction in TMPRSS2 activity [10]: no significant reduction | PFU/g ([11]; Females): 15000000 PFU/g and 1441176 PFU/g and 8676471 PFU/g and 0 PFU/g and 2014706 PFU/g | PFU/mL ([11]; Females): 3000000 PFU/mL and 288235 PFU/mL and 1735294 PFU/mL and 0 PFU/mL and 402941 PFU/mL | PFU/g ([11]; Males): 0 PFU/g and 9852941 PFU/g and 720588 PFU/g | PFU/mL ([11]; Males): 0 PFU/mL and 1970588 PFU/mL and 144118 PFU/mL | inhibition of SARS-CoV-2 infection in dose-response ([12]; Calu-3 cells, concentrations up to 1 μM): substantial inhibition was not observed | Nucleocapsid ([12]; Figure 2a, two replicates, DMSO control about 91-94): 67.4057 and 91.7182 | dsRNA ([12]; Figure 2a, two replicates, DMSO control about 93-95): 60.8663 and 93.4144 | EC50 ([12]; Severe acute respiratory syndrome coronavirus 2, Calu-3, read-out: SARS-CoV-2 VIDO Nucleocapsid EC50 ± SE): > 1000 nM | inhibition at 0.1 µM ([12]; Severe acute respiratory syndrome coronavirus 2, Calu-3, read-out: inhibition of SARS-CoV-2 infection): < 23% | Figure 2b dose-response, Mean ([12]; log [C] (nM) 0.20412): 76.2535 | Figure 2b dose-response, Mean ([12]; log [C] (nM) 0.90309): 92.6293 | Figure 2b dose-response, Mean ([12]; log [C] (nM) 1.60206): 68.5403 | Figure 2b dose-response, Mean ([12]; log [C] (nM) 2.30103): 90.4217 | Figure 2b dose-response, Mean ([12]; log [C] (nM) 3): 72.2184 | Figure 2b dose-response, Mean ([12]; log [C] (nM) -0.49485): 87.0011 | Figure 2b dose-response, Mean ([12]; log [C] (nM) -1.19382): 84.82 | average weight loss at 6 dpi [13]: 12% | survival to the end-point (14 dpi) [13]: 10% | weight loss at the study end-point [13]: 15% | Brain No. Positive (IHC detections) [14]: 205622 and 308647 and 423604 and 84 and 143563 and 207074 and 97743 and 210 and 4043 and 310256 | Brain No. Positive per mm^2 [14]: 4555.9 per mm^2 and 7896.3 per mm^2 and 7494 per mm^2 and 2.578 per mm^2 and 3909.6 per mm^2 and 5209.1 per mm^2 and 2144.6 per mm^2 and 10.67 per mm^2 and 137.97 per mm^2 and 6010.9 per mm^2 | Brain Positive % [14]: 45.15% and 78.61% and 74.5% and 0.0256% and 38.77% and 51.89% and 21.4% and 0.1052% and 1.361% and 59.5% | Lung No. Positive (IHC detections) [14]: 39230 and 61582 and 572 and 191 and 315 and 37366 and 98 and 384 and 178 | Lung No. Positive per mm^2 [14]: 2703.8 per mm^2 and 1622.2 per mm^2 and 26.11 per mm^2 and 8.074 per mm^2 and 15.79 per mm^2 and 10.94 per mm^2 and 1638.9 per mm^2 and 3.505 per mm^2 and 17.97 per mm^2 and 6.38 per mm^2 | Lung Positive % [14]: 26.59% and 15.97% and 0.2589% and 0.0798% and 0.1558% and 0.1086% and 16.31% and 0.0348% and 0.1784% and 0.063%

Triton X-100 [reference compound]
% Viability of Vero E6 cells [15]: 0.08115% and 6.372% and 5.985% and 2.918%

N=C(N)NCCCCC(=O)N[C@@H](CCC(=O)O)C(=O)N[C@@H](Cc1ccccc1)C(=O)N[C@@H](CCCNC(=N)N)C(=O)c1nc2ccccc2s1 [Compound N-00438]
Ki [1]: > 10000 nM | Ki [2]: 34.3 nM and 27.6 nM and 29.8 nM | Ki [3]: > 10000 nM | Ki [4]: 1.21 nM and 1.02 nM and 1.09 nM | Ki [5]: > 10000 nM | Ki [6]: 0.477 nM and 0.603 nM and 0.489 nM
